Data as given in patent US20050037975A1, “Method for treatment of glutamate related disorders” (priority 1997, published 2005).
Where “and” joins values, the source holds several entries; their conditions need not be identical. Identical values can stand only once. Marks after values point to notes of the source that are not given here.

Columns and labels:
[1] = Plasma acetaldehyde determination after ethanol challenge; type: in vivo, rat; conditions: 10.3 mg/kg IP in polyethylene glycol 200, ethanol challenge 1 g/kg IP
Method: Rats maintained as described in Ex. 4, fasted for 18 hours, were given 10.3 mg/kg of the DETC-Me SO intraperitoneally, dissolved in polyethylene glycol 200 and then challenged eight hours later with a dose of ethanol (1 g/kg; 20% v/v) also administered intraperitoneally. The rats were anesthetized with phenobarbital 30 minutes after alcohol administration and blood was taken by aortic puncture, being drawn into a heparinized syringe. Plasma acetaldehyde was determined by the method of C. O. P. Eriksson et al., Anal. Biochem., 80, 116 (1977). Plasma concentrations were determined based on a standard curve obtained with known concentrations of acetaldehyde. Control rats were treated with 1 ml/kg of polyethylene glycol 200.

mouse liver low Km ALDH = target: T1, mouse liver low Km ALDH (Mus musculus, UniProt P47738); assay: In vivo inhibition of mouse liver aldehyde dehydrogenase
T1 construct: Liver aldehyde dehydrogenase was extracted and assayed as previously described; from tissue; host or cells: liver of treated mice
T1 sequence (P47738 20-519): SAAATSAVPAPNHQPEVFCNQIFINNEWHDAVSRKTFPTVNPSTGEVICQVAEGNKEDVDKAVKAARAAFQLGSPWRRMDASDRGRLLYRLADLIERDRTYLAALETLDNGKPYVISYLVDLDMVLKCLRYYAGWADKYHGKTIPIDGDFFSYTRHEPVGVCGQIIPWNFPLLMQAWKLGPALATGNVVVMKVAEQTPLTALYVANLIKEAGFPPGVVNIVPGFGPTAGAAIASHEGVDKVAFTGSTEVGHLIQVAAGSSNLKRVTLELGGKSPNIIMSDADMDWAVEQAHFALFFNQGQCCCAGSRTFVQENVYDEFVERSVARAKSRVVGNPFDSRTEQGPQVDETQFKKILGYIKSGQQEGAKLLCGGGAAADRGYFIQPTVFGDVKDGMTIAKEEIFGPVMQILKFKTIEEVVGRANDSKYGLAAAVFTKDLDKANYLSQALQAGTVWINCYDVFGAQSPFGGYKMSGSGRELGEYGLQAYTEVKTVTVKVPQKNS
Method: Reagents—DETC-MeSO was synthesized by the method of Hart and Faiman (B. W. Hart et al., Biochem. Pharmacol.), 43, 403-406 (1992). Carbamoylated glutathione, S-(N,N-diethylcarbamoyl)glutathione (DETC-GS), was prepared essentially as described by Jin et al. (L. Jin, supra). The structures and purity of DETC-MeSO and DETC-GS were confirmed by 300 MHz NMR and FAB-tandem mass spectrometry. A QE300 NMR spectrometer (General Electric, Fremont, Calif.) and Autospec-Q Tandem Hybrid mass spectrometer (Fiscons/VG Analytical Limited, Manchester, England) were employed for these analyses. Liver aldehyde dehydrogenase was extracted and assayed as previously described (B. W. Hart et al., supra). MetSOX monosodium L-glutamate, glycine, glutathione, and NMDA were purchased from Sigma Chemical Company (St. Louis, Mo.). L-[3-^3H]Glutamate (46 Ci/mmol) was obtained from Amerisham Life Science (Buckinghamshire, England).

[2] = system: brain glutamate receptors (synaptic membranes); assay: [3H]glutamate binding to mouse brain synaptic membranes in vitro
Method: Binding Studies—Synaptic membranes (100 μg protein) were isolated (Y. H. Lee et al., J. Neurosci. Res. 40, 797-806 (1995)) form whole brain homogenate of male Swiss Webster mice and were incubated in 0.1 mM L-glutamate for 30 minutes at 25° C. After addition of 50 nM of [^3H]glutamate, incubation was continued for an additional 45 minutes. Reactions were terminated by centrifugation at 4° C. to separate membrane-bound from free radioactivity. […] The rate (k) and maximum percent blockage of glutamate binding (M) by DETC-MeSO (1) during the incubation time (t) was determined by fitting the equation [% inhibition]=M(1−e^−kh) to these day by use of the program Grafit (Erithicus Software Ltd.). This equation was derived for first-order inactivation by a group specific reagent that gives a partial effect. If “A” is the percent of binding activity that remains after extensive exposure (t=of the receptor to excess DETC-MeSO, then M=100−A)e^−kh+A; substituting (100−M) for “A” and [100−% inhibition] for “a” in this equation gives the one employed for purposes of data analyses. […] A second equation was employed in the analysis of binding data that defines partial, irreversible inactivation of two distinct groups of receptors [% inhibition]=M1(1−e^−k1^IT)+M2(1−e^−k1^IT), where M1 and M2 are the maximum amount of inhibition obtained for complete modification of each receptor population and k1 and k2 are the rate constants for these modifications, respectively.
Six determinations of the effect of DETC-MeSO were made at each concentration tested (1, 5, 10, 50, 100, 200, and 1000 μM) and the average value is shown with error bars for one standard deviation.

NMDA-induced seizures = NMDA-induced seizures in mice; type: in vivo
Method: (§1) Animals—Male Swiss Webster mice (20-30 g) or male Sprague-Dawley rats (250-300 g) were used. All that employed animals were conducted in strict compliance with the NIH guidelines on animal use and institutional regulations concerning animal experimentation. Animals were exposed to hyperbaric oxygen in a specify designed press chamber as previously described (M. D. Faiman et al., Biochem. Pharmacol., 20, 3049-3067 (1971); M. D. Faiman et al. Aerosp. Med.,45, 29032.(1974)). The time to first clonic-tonic seizure after brining animals to a final pressure of five atmospheres of 100% oxygen or after intraperitoneal injection of convulsants was noted by. criteria outlined previously (M. D. Faiman et al. (1971), supra M. D. Faiman et al. (1974), supra). Unless otherwise specified, the ability of DETC-MeSO to prevent seizures was tested by intraperitoneal injection of 5.2 mg/kg of DETC-MeSO 1-2 hours prior to bringing the animal to a final pressure of 5 atmospheres of 100% oxygen or intraperitoneal injection of N-methyl-D-asparate (NMA) (125 mg/kg) r L-methionine sulfoximine (MetSOX) (250 mg/kg). Evaluation of the statistics for whole animal experiments or for changes in brain glutamate binding after administration of DETC-MeSO was conducted by use of the program GraphPAD InStat from Graph PAD Software (San Diego, Calif.).

MetSOX-induced seizures = MetSOX-induced seizures in rats; type: in vivo
Method: as §1

[3] = double exponential fit, nominal values

With `CCN(CC)C(=O)[S+](C)[O-]` (stereo not drawn) [DETC-MeSO, S-Methyl-N,N-Diethylthiolcarbamate Sulfoxide] the plasma acetaldehyde [1] was “approximately 900 μM”, the “inactivation of ALDH” value (mouse liver low Km ALDH; 5.2 mg/kg i.p. in mice, in 1 hour) was 80% and the “effective concentration at its site of action in vivo” value (mouse liver low Km ALDH; 5.2 mg/kg i.p. in mice, worked out from inactivation rate) was “about 11 μM”. The inhibition at 2.6 mg/kg (mouse liver low Km ALDH; mouse, ip, 2.6 mg/kg i.p., read-out: inhibition of mouse liver enzyme (ALDH)) was 84%, the inhibition at 30 µmol/kg (mouse liver low Km ALDH; mouse, 30 μmol/kg intravenous, mice) was 44.9 ± 1% and the “inhibition of glutamate binding” value ([2]; 0.1 mM, absence of glycine (FIG. 2)) was 53%. For the same compound, the “irreversible blockage of glutamate binding” value ([2]; 0.1 mM, in the presence of glycine (0.1 mM)) was 48±3%, the “M1, maximum inhibition of first receptor population” value [2, 3] was 15% and the “M2, maximum inhibition of second receptor population” value [2, 3] was 43%. The “k1, rate constant of first receptor population” value [2, 3] was 900 M⁻¹ s⁻¹ and 901 M⁻¹ s⁻¹, the “k2, rate constant of second receptor population” value [2, 3] was 8 M⁻¹ s⁻¹ and the “effect on glutamate binding to synaptic membrane preparations” value ([2]; in vitro, without glycine) was “time-dependent, partial, and irreversible loss of their ability to bind glutamate”. The “rate (k) of blockage of glutamate binding” value ([2]; single exponential fit) was 25±10 M^−s^−1, the “maximum percent blockage of glutamate binding (M)” value ([2]; single exponential fit, 1-1000 μM) was 58±7% and the “effect on seizures that result from NMDA administration” value (NMDA-induced seizures; NMDA 125 mg/kg i.p.) was “prevented seizures”. The “number of animals that exhibited the effect/total number of animals in the group” value (NMDA-induced seizures; NMDA 125 mg/kg, 5.2 mg/kg i.p. 1-2 hours prior) was “(0/6)^a”, the “mean time to seizure” value (NMDA-induced seizures; NMDA 125 mg/kg, 5.2 mg/kg i.p. 1-2 hours prior, observation 2 hours) was >120^a min and the “effect on time free of MetSOX seizures” value (MetSOX-induced seizures) was “more than doubled”. The “number of animals that exhibited the effect/total number of animals in the group” value (MetSOX-induced seizures; MetSOX 250 mg/kg) was “(4/4)” and the “mean time to seizure” value (MetSOX-induced seizures; MetSOX 250 mg/kg, 5.2 mg/kg i.p. 1-2 hours prior, ± standard error) was 318 ± 60 min.
